Reference: the CheMixHub viscosity set
Where “and” joins values, the source holds several entries; their conditions need not be identical. Equal values may be shown once.

Experiment: xn = mol fraction of the nth substance listed

CCCCCCCCCCBr + ClC(Cl)(Cl)Cl
101 kPa
Conditions | viscosity [mPa·s]
297.75 K, x1 = 0.0484 | 0.9823
297.75 K, x1 = 0.0969 | 1.057
297.75 K, x1 = 0.1945 | 1.208
297.75 K, x1 = 0.3918 | 1.52
297.75 K, x1 = 0.5923 | 1.858
297.75 K, x1 = 0.7944 | 2.106
303.95 K, x1 = 0.0456 | 0.8918
303.95 K, x1 = 0.0914 | 0.9574
303.95 K, x1 = 0.1852 | 1.105
303.95 K, x1 = 0.2667 | 1.2
303.95 K, x1 = 0.5802 | 1.618
303.95 K, x1 = 0.7825 | 1.864
313.55 K, x1 = 0.0457 | 0.7792
313.55 K, x1 = 0.092 | 0.8323
313.55 K, x1 = 0.1856 | 0.948
313.55 K, x1 = 0.378 | 1.171
313.55 K, x1 = 0.5776 | 1.377
313.55 K, x1 = 0.7832 | 1.562

S + ClC(Cl)Cl
298.15 K, 101 kPa
Conditions | viscosity [mPa·s]
x1 = 0.00673 | 0.5257
x1 = 0.00998 | 0.5206

FC(F)(Cl)C(F)(F)Cl + FC(F)Cl
101 kPa
Conditions | viscosity [mPa·s]
293.25 K, x2 = 0.182 | 0.3196
293.25 K, x2 = 0.457 | 0.2521
293.25 K, x2 = 0.568 | 0.2391
293.25 K, x2 = 0.663 | 0.2175
293.25 K, x2 = 0.748 | 0.1992
293.35 K, x2 = 0.947 | 0.1767
293.75 K, x2 = 0.329 | 0.2853
312.85 K, x2 = 0.457 | 0.2097
312.85 K, x2 = 0.663 | 0.1757
312.95 K, x2 = 0.182 | 0.2474
312.95 K, x2 = 0.821 | 0.1515
313.05 K, x2 = 0.568 | 0.1902
313.05 K, x2 = 0.748 | 0.1648
313.05 K, x2 = 0.947 | 0.141
313.15 K, x2 = 0.891 | 0.1461
313.55 K, x2 = 0.329 | 0.2284

Clc1ccc(Cl)c(Cl)c1 + Nc1cccc(Cl)c1
viscosity [mPa·s], 100 kPa
Conditions | x2 = 0.0895 | x2 = 0.1795 | x2 = 0.3125 | x2 = 0.4256 | x2 = 0.5169 | x2 = 0.6254 | x2 = 0.7145 | x2 = 0.8102 | x2 = 0.9012
303.15 K | 1.993 | 2.225 | 2.565 | 2.851 | 3.079 | 3.348 | 3.566 | 3.798 | 4.017
308.15 K | 1.825 | 2.033 | 2.337 | 2.593 | 2.797 | 3.037 | 3.231 | 3.437 | 3.631
313.15 K | 1.658 | 1.843 | 2.111 | 2.336 | 2.516 | 2.727 | 2.896 | 3.078 | 3.248
318.15 K | 1.493 | 1.653 | 1.887 | 2.083 | 2.237 | 2.419 | 2.566 | 2.722 | 2.867

Clc1ccc(Cl)c(Cl)c1 + Nc1ccccc1Cl
viscosity [mPa·s], 101 kPa
Conditions | x2 = 0.1164 | x2 = 0.2287 | x2 = 0.337 | x2 = 0.4415 | x2 = 0.5425 | x2 = 0.6402 | x2 = 0.7346 | x2 = 0.8259 | x2 = 0.9143
303.15 K | 1.936 | 2.118 | 2.307 | 2.504 | 2.708 | 2.919 | 3.137 | 3.361 | 3.59
308.15 K | 1.773 | 1.935 | 2.103 | 2.277 | 2.456 | 2.639 | 2.827 | 3.018 | 3.214
313.15 K | 1.614 | 1.761 | 1.912 | 2.067 | 2.226 | 2.388 | 2.553 | 2.72 | 2.889
318.15 K | 1.46 | 1.595 | 1.734 | 1.875 | 2.019 | 2.165 | 2.313 | 2.462 | 2.612

CC(N)C(=O)O (stereo not drawn) + O
viscosity, 101 kPa
Conditions | x1 = 0.0004 | x1 = 0.0007 | x1 = 0.001 | x1 = 0.0018 | x1 = 0.0022 | x1 = 0.0025 | x1 = 0.0029 | x1 = 0.0032 | x1 = 0.0036
293.15 K | 1.006 mPa·s | 1.012 mPa·s | 1.017 mPa·s and 1.022 mPa·s | – | – | 1.038 mPa·s | 1.043 mPa·s | – | –
298.15 K | 0.8956 mPa·s | 0.9003 mPa·s | 0.9054 mPa·s | 0.915 mPa·s | 0.9199 mPa·s | 0.9246 mPa·s | 0.929 mPa·s | 0.934 mPa·s | 0.9389 mPa·s
303.15 K | 0.8028 mPa·s | 0.8077 mPa·s | 0.8122 mPa·s | 0.8213 mPa·s | 0.8256 mPa·s | 0.8299 mPa·s | 0.8341 mPa·s | 0.8382 mPa·s | 0.8429 mPa·s
308.15 K | 0.7254 mPa·s | 0.7303 mPa·s | 0.7349 mPa·s | 0.7436 mPa·s | 0.7478 mPa·s | 0.7519 mPa·s | 0.7558 mPa·s | 0.7599 mPa·s | 0.7635 mPa·s
313.15 K | 0.6592 mPa·s | 0.6641 mPa·s | 0.6726 mPa·s | 0.6767 mPa·s | 0.6804 mPa·s | – | 0.688 mPa·s | 0.6916 mPa·s | 0.6953 mPa·s
